Experimental data published in patent US10626103B2, “Inhibitor of lysine specific demethylase-1” (CELGENE QUANTICEL RESEARCH, INC., priority 2014, dated 2020).

Legend:
[1] = test system: CD11b expression in THP-1 (AML) cells; experiment: LSD1 CD11b cellular assay (flow cytometry); type: cell-based; details: THP-1 cells, 4 days
Protocol: To analyze LSD1 inhibitor efficacy in cells, a CDL11b flow cytometry assay was performed. LSD1 inhibition induces CD11b expression in THP-1 (AML) cells which can be measured by flow cytometry. […] LSD 1 test compounds were serially diluted in DMSO. The dilutions were added to each well accordingly to a final concentration of 0.2% DMSO. The cells were incubated at 37 degrees Celsius in 5% CO2 for 4 days. 250 μL of each well was transferred to a well in a 96 well round bottom plate. The plate was centrifuged at 1200 rpm at 4 degrees Celsius in a Beckman Coulter Alegra 6KR centrifuge for 5 minutes. The media was removed leaving the cells at the bottom of the wells. The cells were washed in 100 μL cold HBSS (Hank's Balanced Salt Solution) plus 2% BSA (Bovine Serum Albumin) solution and centrifuged at 1200 rpm at 4 degrees Celsius for 5 minutes. The wash was removed. […] The cells were centrifuged and washed two times in 100 μl HBSS plus 2% BSA. After the final spin the cells were resuspended in 100 μL HBSS plus 2% BSA containing 1 ug/mL DAPI (4′,6-diamidino-2-phenylindole). The cells were then analyzed by flow cytometry in a BD FACSAria machine. Cells were analyzed for CD11b expression. The percent of CD11b expressing cells for each inhibitor concentration was used to determine an IC50 curve for each compound analyzed.

full-length human LSD1 = full-length human LSD1 (Homo sapiens (Human), UniProt O60341); experiment: In vitro enzyme inhibition assay LSD-1 (TR-FRET); type: biochemical; details: H3K4me1-biotin peptide
Protocol: This assay determines the ability of a test compound to inhibit LSD1 demethylase activity.
The enzymatic assay of LSD1 activity is based on Time Resolved-Fluorescence Resonance Energy Transfer (TR-FRET) detection.
Plates were read by EnVision Multilabel Reader in TR-FRET mode (excitation at 320 nm, emission at 615 nm and 665 nm) after 1 hour incubation at room temperature.
The ability of the compounds disclosed herein to inhibit LSD1 activity was quantified and the respective IC50 value was determined.

Row | IC50 ([1]; Homo sapiens, 96 h) | IC50 (full-length human LSD1) | IC50 [1] | Structure (SMILES)
1 | 100 to 1000 nM |  |  | COc1ccc(-c2c(-c3ccc(C#N)c(F)c3)cc(C(=O)N3CCC[C@@H](N)C3)n2CCCC(=O)O)cc1 [Example 41, 4-{5-[((3R)-3-aminopiperidyl)carbonyl]-3-(4-cyano-3-fluorophenyl)-2-(4-methoxyphenyl)pyrrolyl}butanoic acid]
2 | < 100 nM | < 100 nM |  | Cn1c(C(=O)N2CCC[C@@H](N)C2)cc(-c2ccc(C#N)c(F)c2)c1-c1ccc2c(c1)ncn2C [Example 10, 4-[5-(3-(R)-amino-piperidine-1-carbonyl)-1-methyl-2-(1-methyl-1H-benzoimidazol-5-yl)-1H-pyrrol-3-yl]-2-fluoro-benzonitrile]
3 | < 100 nM | < 100 nM |  | CN[C@H]1CCN(C(=O)c2cn(-c3ccc(OC)cc3)c(-c3ccc(C#N)c(F)c3)n2)C1 [Example 71, 2-Fluoro-4-[1-(4-methoxyphenyl)-4-[(3S)-3-(methylamino)pyrrolidine-1-carbonyl]imidazol-2-yl]benzonitrile]
4 | < 100 nM | < 100 nM |  | Cn1cc2cc(-c3c(-c4ccc(C#N)c(F)c4)cc(C(=O)N4CCC[C@@H](N)C4)n3CCO)ccc2n1 [Example 35, (R)-4-(5-(3-aminopiperidine-1-carbonyl)-1-(2-hydroxyethyl)-2-(2-methyl-2H-indazol-5-yl)-1H-pyrrol-3-yl)-2-fluorobenzonitrile]
5 |  | < 100 nM |  | Cn1cc2cc(-n3cc(C(=O)N4CCC[C@@H](N)C4)nc3-c3ccc(C#N)c(F)c3)ccc2n1 [Example 25, 4-[4-[(3R)-3-aminopiperidine-1-carbonyl]-1-(2-methylindazol-5-yl)imidazol-2-yl]-2-fluorobenzonitrile]
6 |  | < 100 nM |  | CN1CC[C@@H](NC(=O)c2cn(-c3ccc4nn(C)c(Cl)c4c3)c(-c3ccc(C#N)c(F)c3)n2)C1 [Example 106, 1-(3-Chloro-2-methylindazol-5-yl)-2-(4-cyano-3-fluorophenyl)-N-[(3R)-1-methylpyrrolidin-3-yl]imidazole-4-carboxamide]
7 | < 100 nM | < 100 nM |  | Cc1c2cc(-n3c(-c4ccc(C#N)c(F)c4)nc(C(=O)N4CC[C@H](N(C)C)C4)c3C)ccc2nn1C [Example 102, 4-[4-[(3S)-3-(Dimethylamino)pyrrolidine-1-carbonyl]-1-(2,3-dimethylindazol-5-yl)-5-methylimidazol-2-yl]-2-fluorobenzonitrile]
8 | < 100 nM | < 100 nM |  | CN1CCC[C@@H](NC(=O)c2cn(-c3ccc4nn(C)c(Cl)c4c3)c(-c3ccc(C#N)c(F)c3)n2)C1 [Example 59, 1-(3-Chloro-2-methylindazol-5-yl)-2-(4-cyano-3-fluorophenyl)-N-[(3R)-1-methylpiperidin-3-yl]imidazole-4-carboxamide]
9 | 100 to 1000 nM | < 100 nM |  | CN(C)[C@H]1CCN(C(=O)c2nc(-c3ccc(C#N)c(F)c3)n(-c3ccc4nn(C)cc4c3)c2Cl)C1 [Example 100, 4-[5-Chloro-4-[(3S)-3-(dimethylamino)pyrrolidine-1-carbonyl]-1-(2-methylindazol-5-yl)imidazol-2-yl]-2-fluorobenzonitrile]
10 | < 100 nM | < 100 nM |  | Cc1c(C(=O)NC2CCCNC2)nc(-c2ccc(C#N)c(F)c2)n1-c1ccc2nn(C)cc2c1 (centres unmarked) [Example 45, 2-(4-Cyano-3-fluorophenyl)-5-methyl-1-(2-methylindazol-5-yl)-N-piperidin-3-ylimidazole-4-carboxamide]
11 | < 100 nM | < 100 nM |  | CN[C@H]1CCN(C(=O)c2nc(-c3ccc(C#N)c(F)c3)n(-c3cc4c(Cl)n(C)nc4cc3F)c2C)C1 [Example 111, 4-[1-(3-Chloro-6-fluoro-2-methylindazol-5-yl)-5-methyl-4-[(3S)-3-(methylamino)pyrrolidine-1-carbonyl]imidazol-2-yl]-2-fluorobenzonitrile]
12 | < 100 nM | < 100 nM |  | Cn1nc2ccc(-n3c(-c4ccc(C#N)c(F)c4)nc(C(=O)N4CCC[C@@H](N)C4)c3F)cc2c1Cl [Example 61, 4-[4-[(3R)-3-Aminopiperidine-1-carbonyl]-1-(3-chloro-2-methylindazol-5-yl)-5-fluoroimidazol-2-yl]-2-fluorobenzonitrile]
13 |  | < 100 nM |  | Cc1c(C(=O)N[C@@H]2CCN(C)C2)nc(-c2ccc(C#N)c(F)c2)n1-c1ccc2nn(C)cc2c1 [Example 108, 2-(4-Cyano-3-fluorophenyl)-5-methyl-1-(2-methylindazol-5-yl)-N-[(3R)-1-methylpyrrolidin-3-yl]imidazole-4-carboxamide]
14 | < 100 nM | < 100 nM |  | Cc1c(C(=O)N2CC[C@H](N(C)C)C2)nc(-c2ccc(C#N)c(F)c2)n1-c1cc2c(Cl)n(C)nc2cc1F [Example 110, 4-[1-(3-Chloro-6-fluoro-2-methylindazol-5-yl)-4-[(3S)-3-(dimethylamino)pyrrolidine-1-carbonyl]-5-methylimidazol-2-yl]-2-fluorobenzonitrile]
15 | 100 to 1000 nM | < 100 nM |  | Cc1c(C(=O)N2CCC3(CCCN3)C2)nc(-c2ccc(C#N)c(F)c2)n1-c1ccc2nn(C)cc2c1 (centres unmarked) [Example 90, 4-[4-(1,7-Diazaspiro[4.4]nonane-7-carbonyl)-5-methyl-1-(2-methylindazol-5-yl)imidazol-2-yl]-2-fluorobenzonitrile]
16 | < 100 nM | < 100 nM |  | CN[C@@H]1CCCN(C(=O)c2nc(-c3ccc(C#N)c(F)c3)n(-c3ccc(OC)cc3)c2F)C1 [Example 74, 2-Fluoro-4-[5-fluoro-1-(4-methoxyphenyl)-4-[(3R)-3-(methylamino)piperidine-1-carbonyl]imidazol-2-yl]benzonitrile]
17 | 100 to 1000 nM | < 100 nM |  | Cn1nc2ccc(-n3cc(C(=O)N4CCC5(CCN5)C4)nc3-c3ccc(C#N)c(F)c3)cc2c1Cl (centres unmarked) [Example 93, 4-[1-(3-Chloro-2-methylindazol-5-yl)-4-(1,7-diazaspiro[3.4]octane-7-carbonyl)imidazol-2-yl]-2-fluorobenzonitrile]
18 | < 100 nM | < 100 nM |  | Cc1c(C(=O)N2CC[C@H](N)C2)nc(-c2ccc(C#N)c(F)c2)n1-c1cc(F)c2nn(C)cc2c1 [Example 50, 4-[4-[(3S)-3-Aminopyrrolidine-1-carbonyl]-1-(7-fluoro-2-methylindazol-5-yl)-5-methylimidazol-2-yl]-2-fluorobenzonitrile]
19 | < 100 nM | < 100 nM |  | CN[C@@H]1CCCN(C(=O)c2cn(-c3ccc4nn(C)c(Cl)c4c3)c(-c3ccc(C#N)c(F)c3)n2)C1 [Example 115, 4-[1-(3-Chloro-2-methylindazol-5-yl)-4-[(3R)-3-(methylamino)piperidine-1-carbonyl]imidazol-2-yl]-2-fluorobenzonitrile]
20 |  | < 100 nM |  | Cc1c(C(=O)N[C@H]2CCN(C)C2)nc(-c2ccc(C#N)c(F)c2)n1-c1ccc2nn(C)cc2c1 [Example 109, 2-(4-Cyano-3-fluorophenyl)-5-methyl-1-(2-methylindazol-5-yl)-N-[(3S)-1-methylpyrrolidin-3-yl]imidazole-4-carboxamide]
21 |  | < 100 nM |  | Cn1ncc2cc(-n3cc(C(=O)N4CCC[C@@H](N)C4)nc3-c3ccc(C#N)c(F)c3)ccc21 [Example 27, 4-[4-[(3R)-3-aminopiperidine-1-carbonyl]-1-(1-methylindazol-5-yl)imidazol-2-yl]-2-fluorobenzonitrile]
22 |  | < 100 nM |  | CN1CC[C@H](NC(=O)c2cn(-c3ccc4nn(C)c(Cl)c4c3)c(-c3ccc(C#N)c(F)c3)n2)C1 [Example 107, 1-(3-Chloro-2-methylindazol-5-yl)-2-(4-cyano-3-fluorophenyl)-N-[(3S)-1-methylpyrrolidin-3-yl]imidazole-4-carboxamide]
23 |  | < 100 nM |  | COc1ccc(-c2c(-c3ccc(C#N)c(F)c3)cc(C(=O)N3CCC[C@@H](N)C3)n2CC(N)=O)cc1 [Example 37, (R)-2-(5-(3-aminopiperidine-1-carbonyl)-3-(4-cyano-3-fluorophenyl)-2-(4-methoxyphenyl)-1H-pyrrol-1-yl)acetamide]
24 |  |  | < 100 nM | Cn1cc2cc(-c3c(-c4ccc(C#N)c(F)c4)cc(C(=O)NCC4CCNC4)n3C)ccc2n1 (stereo in doubt) [Example 33, N-[((3S)pyrrolidin-3-yl)methyl][4-(4-cyano-3-fluorophenyl)-1-methyl-5-(2-methyl(2H-indazol-5-yl))pyrrol-2-yl]carboxamide]
25 |  | < 100 nM |  | Cn1ncc2cc(-n3cc(C(=O)N4CC[C@H](N)C4)nc3-c3ccc(C#N)c(F)c3)ccc21 [Example 28, 4-[4-[(3S)-3-aminopyrrolidine-1-carbonyl]-1-(1-methylindazol-5-yl)imidazol-2-yl]-2-fluorobenzonitrile]
26 |  | < 100 nM |  | Cn1cc2cc(-n3cc(C(=O)N4CC[C@H](N)C4)nc3-c3ccc(C#N)c(F)c3)ccc2n1 [Example 26, 4-[4-[(3S)-3-aminopyrrolidine-1-carbonyl]-1-(2-methylindazol-5-yl)imidazol-2-yl]-2-fluorobenzonitrile]
